Values of other authors, collected in patent US20230089681A1, “USE OF A COMBINATION OF SULFICANT COMPOUNDS WITH A LIQUID CARRIER AS A SELF EMULSIFYING DRUG DELIVERY SYSTEM” (priority 2021, published 2023).
Like-named read-outs stand apart in the source and are kept apart here.

- absorption (oral, in capsule form taken with water): 0.306%
- absorption (traditional oral administration): 0.36%
Structure (SMILES): COc1ccc2cc3[n+](cc2c1OC)CCc1cc2c(cc1-3)OCO2 [Berberine]
